Data taken from patent US20180093956A1, “SUBSTITUTED PHTHALAZINES” (AbbVie Inc., priority 2015, published 2018).

Molecular target: SUV420H1 enzyme (Homo sapiens, UniProt Q4FZB7)
Experiment: TR-FRET SAH SUV420H1 enzyme inhibition assay
Format: biochemical
Conditions: Histone Peptide H4(8-30)me1 and SAM, TR-FRET detection of SAH, read-out: TR-FRET SAH_SUV420H1 IC50
Method: Test compounds were dispensed by a Labcyte Echo in 384-well low volume assay plates with 3-fold serial dilutions from 50 μM to 0.00075 μM. 5 μL of SUV420H1 enzyme (Abbvie) at 90 nM was added to all wells except for the no enzyme control wells and incubated for 30 minutes at room temperature before 5 μL of Histone Peptide H4(8-30)me1 (Anaspec) at 5 μM and SAM at 4 μM was added to all wells. The plates were incubated in a humidified chamber overnight at room temp and then 10 μL of the detection reagent that contained RIPA buffer (50 mM Tris-HCl, pH 8.0, 150 mM sodium chloride, 1.0% Igepal CA-630 (NP-40), 0.5% sodium deoxycholate and 0.1% sodium dodecyl sulfate) (Sigma) with 2 nM of Terbium chelate anti S-adenosyl-L-homocysteine (SAH) (Abbvie) antibody and Oregon Green labeled SAH at 4 nM was added. The plates were further incubated for 4 hours at room temperature. The plates were read in a Perkin Elmer Envision using a TR-FRET protocol with Excitation set at 335 nm and Emission at 520 and 495 nm. To generate dose response curves the data is normalized to percent inhibition by setting the average of the plus and minus enzyme control wells to 0% and 100% inhibition respectively. The ICso values for the compounds are generated by fitting the normalized data with Accelrys Assay Explorer 3.3 to a sigmoidal curve model using […], Y=(100*x^n)/(K^n+x^n), where Y is the measured response, x is the compound concentration, n is the Hill Slope and K is the IC50 and the lower and higher asymptotes are constrained to 0 and 100 respectively.

SUV420H1 enzyme, sequence (Q4FZB7 whole entry): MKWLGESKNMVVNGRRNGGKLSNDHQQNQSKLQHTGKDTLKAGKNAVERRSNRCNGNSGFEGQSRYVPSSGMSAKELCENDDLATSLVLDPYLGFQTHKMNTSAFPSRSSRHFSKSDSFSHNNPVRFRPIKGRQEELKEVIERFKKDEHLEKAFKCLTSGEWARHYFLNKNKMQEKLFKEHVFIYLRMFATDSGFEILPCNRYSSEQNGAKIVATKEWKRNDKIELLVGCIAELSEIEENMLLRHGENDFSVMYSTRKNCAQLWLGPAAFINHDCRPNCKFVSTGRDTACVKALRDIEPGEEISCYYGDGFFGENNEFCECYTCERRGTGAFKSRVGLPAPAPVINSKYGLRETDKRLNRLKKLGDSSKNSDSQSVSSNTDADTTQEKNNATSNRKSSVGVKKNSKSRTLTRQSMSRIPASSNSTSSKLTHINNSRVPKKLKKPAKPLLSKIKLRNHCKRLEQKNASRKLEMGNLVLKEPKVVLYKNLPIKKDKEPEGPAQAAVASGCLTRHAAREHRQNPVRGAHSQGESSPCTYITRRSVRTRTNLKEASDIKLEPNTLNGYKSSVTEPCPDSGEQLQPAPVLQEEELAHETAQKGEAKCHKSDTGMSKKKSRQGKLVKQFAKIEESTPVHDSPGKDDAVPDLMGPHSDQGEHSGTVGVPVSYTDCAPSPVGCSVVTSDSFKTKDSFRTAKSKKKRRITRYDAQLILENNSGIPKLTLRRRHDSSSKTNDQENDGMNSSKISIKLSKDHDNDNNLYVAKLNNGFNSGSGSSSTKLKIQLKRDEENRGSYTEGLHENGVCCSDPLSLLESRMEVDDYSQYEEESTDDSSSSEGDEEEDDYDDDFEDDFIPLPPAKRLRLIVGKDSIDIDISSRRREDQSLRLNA

| SMILES | IC50 |
| --- | --- |
| O=C(Cn1cc(-c2nnc(NC3CCCC3)c3cc(Cl)c(Cl)cc23)cn1)N1CCS(=O)(=O)CC1 [Example 63, 2-{4-[6,7-dichloro-4-(cyclopentylamino)phthalazin-1-yl]-1H-pyrazol-1-yl}-1-(1,1-dioxidothiomorpholin-4-yl)ethanone] | 208 nM |
| Clc1cc2c(NC3CCCC3)nnc(-c3ccccc3)c2cc1Cl [Example 2, 6,7-dichloro-N-cyclopentyl-4-phenylphthalazin-1-amine] | 28900 nM |
| O=C(c1nnc(NC2CCCC2)c2cc(Cl)c(Cl)cc12)N1CCCC1 [Example 47, [6,7-dichloro-4-(cyclopentylamino)phthalazin-1-yl](pyrrolidin-1-yl)methanone] | 3780 nM |
| O=C(Nc1ccccc1)c1nnc(NC2CCCC2)c2cc(Cl)c(Cl)cc12 [Example 53, 6,7-dichloro-4-(cyclopentylamino)-N-phenylphthalazine-1-carboxamide] | 1340 nM |
| O=C(Cn1cc(-c2nnc(NC3CCCC3)c3cc(Cl)c(Cl)cc23)cn1)N1CCOCC1 [Example 65, 2-{4-[6,7-dichloro-4-(cyclopentylamino)phthalazin-1-yl]-1H-pyrazol-1-yl}-1-(morpholin-4-yl)ethanone] | 551 nM |
| CS(=O)(=O)CC(=O)N1CC=C(c2nnc(NC3CCCC3)c3cc(Cl)c(Cl)cc23)CC1 [Example 82, 1-{4-[6,7-dichloro-4-(cyclopentylamino)phthalazin-1-yl]-3,6-dihydropyridin-1(2H)-yl}-2-(methylsulfonyl)ethanone] | 681 nM |
| CC(C)(C)OC(=O)N1CC=C(c2nnc(NC3CCCC3)c3cc(Cl)c(Cl)cc23)CC1 [Example 23, tert-butyl 4-[6,7-dichloro-4-(cyclopentylamino)phthalazin-1-yl]-3,6-dihydropyridine-1(2H)-carboxylate] | 1510 nM |
| CS(=O)(=O)N1CC=C(c2nnc(NC3CCCC3)c3cc(Cl)c(Cl)cc23)CC1 [Example 67, 6,7-dichloro-N-cyclopentyl-4-[1-(methylsulfonyl)-1,2,3,6-tetrahydropyridin-4-yl]phthalazin-1-amine] | 448 nM |
| O=S(=O)(C1CC1)N1CC=C(c2nnc(NC3CCCC3)c3cc(Cl)c(Cl)cc23)CC1 [Example 68, 6,7-dichloro-N-cyclopentyl-4-[1-(cyclopropylsulfonyl)-1,2,3,6-tetrahydropyridin-4-yl]phthalazin-1-amine] | 453 nM |
| Clc1cc2c(NC3CCCC3)nnc(-c3ccc(CN4CCOCC4)cc3)c2cc1Cl [Example 14, 6,7-dichloro-N-cyclopentyl-4-[4-(morpholin-4-ylmethyl)phenyl]phthalazin-1-amine] | 19100 nM |
| NC1CCN(c2ccc(-c3nnc(NC4CCCC4)c4cc(Cl)c(Cl)cc34)cn2)C1 (stereo not shown) [Example 33, 4-[6-(3-aminopyrrolidin-1-yl)pyridin-3-yl]-6,7-dichloro-N-cyclopentylphthalazin-1-amine] | 1240 nM |
| CCNC(=O)c1nnc(NC2CCCC2)c2cc(Cl)c(Cl)cc12 [Example 45, 6,7-dichloro-4-(cyclopentylamino)-N-ethylphthalazine-1-carboxamide] | 197 nM |
| O=C(C1CCC(O)C1)N1CC=C(c2nnc(NC3CCCC3)c3cc(Cl)c(Cl)cc23)CC1 (stereo not shown) [Example 84, {4-[6,7-dichloro-4-(cyclopentylamino)phthalazin-1-yl]-3,6-dihydropyridin-1(2H)-yl}(3-hydroxycyclopentyl)methanone] | 688 nM |
| Fc1cc(-c2nnc(NC3CCCC3)c3cc(Cl)c(Cl)cc23)ccn1 [Example 12, 6,7-dichloro-N-cyclopentyl-4-(2-fluoropyridin-4-yl)phthalazin-1-amine] | 827 nM |
| Clc1cc2c(NC3CCCC3)nnc(-c3ccc(N4CCCC4)nc3)c2cc1Cl [Example 31, 6,7-dichloro-N-cyclopentyl-4-[6-(pyrrolidin-1-yl)pyridin-3-yl]phthalazin-1-amine] | 2740 nM |
| OC1CCN(c2ccc(-c3nnc(NC4CCCC4)c4cc(Cl)c(Cl)cc34)cn2)CC1 [Example 28, 1-{5-[6,7-dichloro-4-(cyclopentylamino)phthalazin-1-yl]pyridin-2-yl}piperidin-4-ol] | 572 nM |
